Measured values from patent US5437980A, “Phenanthridium dye staining of nucleic acids in living cells” (Molecular Probes, Inc., priority 1993, dated 1995).
“Also recorded” adds a separate entry of the source.

Key:
[1] = system: tissue culture cells; test: Entry into / staining pattern of tissue culture cells; assay type: cell-based
Text: In some tissue culture cells, the pattern of staining is different from that observed in plant cells or bacteria. In the former case, cells are usually loaded with a brief pulse of dye, followed by a chase of buffered saline solution. These cells show a pattern of staining first in numerous intracellular compartments; e.g. lysosomes. In addition to staining these organelles first, the dyes also undergo a spectral shift to shorter wavelengths when associated with this "early-labeled compartment." If the same cells are exposed to pulses of higher concentrations of the 5-DAPP/LIVE dyes, the staining appears in the mitochondria (tubular structures that are labeled with rhodamine 123) and then, finally, in the nucleus, where it stains the nucleoli very brightly. Nucleoli are the most prominently stained area of higher eukaryotic cells, while the nuclei and cytosol usually stain in a hazy or punctate pattern in these cells. […] In plant tissues distinct nuclei tend to label uniformly, but there is frequently significant binding of the dye to cell walls. The plant cells are usually dark except for cell walls and nuclei. The characteristic binding morphology obtained using the 5-DAPP/LIVE dyes thus makes them useful in certain circumstances for identifying the type of cell in a mixed population of cells.

[2] = system: Bacillus cereus; test: Relative rate and extent of dye uptake into living Bacillus cereus (Example 2, FIG. 1); assay type: cell-based; conditions: 2 μM dye, 23° C.
Experimental: FIG. 1. Relative Uptake of Dyes into Living Cells. Uptake of ethidium, butidium, hexidium and octidium by Bacillus cereus as described in Example 2.
Bacillus cereus is grown in nutrient broth to log phase, washed by centrifugation, and resuspended in water to a density of 5×10^6 cfu/mL (as determined in Example 1). One centimeter pathlength acrylic cuvettes containing 3 mL of cell suspension are placed in a fluorescence spectrophotometer equipped with a temperature regulated cuvette holder and magnetic stirrer. The suspensions are brought to 23° C. prior to dye addition. To a cuvette of 3 mL bacteria suspension is added 3 μL of 2 mM dye stock solutions in DMSO to give a final dye concentration of 2 μM to produce the maximum attainable fluorescence/cell at the 600 nm emission wavelength (determined as in Example 1). The peak fluorescence excitation and emission wavelengths are determined by scanning the spectrum of the dye in suspensions of Bacillus cereus incubated for 30 min with the dye. Fluorescence intensity of the suspensions is measured using 488 nm excitation and 600 nm emission wavelengths. Sampling of fluorescence is carried out at 5 or 10 Hz until the fluorescence signal appears to stabilize.

[3] = system: 3T3 mouse fibroblast cells; test: Pulse-chase staining of lysosomal compartments in cultured mammalian cells (Example 10); assay type: cell-based
Experimental: 3T3 mouse fibroblast cells are grown on coverslips in calf serum-supplemented DMEM medium. The coverslips of cells are washed using the HBSS+, then hexidium solutions are prepared to final concentrations of 2 μM and 0.2 μM in HBSS+. The cells are incubated in the dye-containing medium for 2 min at room temperature then they are washed in HBSS +and viewed by epifluorescence microscopy using a long-pass fluorescein or a rhodamine filter set.

[4] = system: 3T3 mouse fibroblast cells; test: Staining of nuclei in adherent cultured mammalian cells (Example 9); assay type: cell-based; conditions: 2 μM dye
Experimental: 3T3 mouse fibroblast cells are grown on coverslips in calf serum-supplemented DMEM medium. The coverslips of cells are washed in HBSS+. 5-DAPP/LIVE dye solutions are prepared to a final concentration of 2 μM in DMEM without serum. One group of 3T3 cells is treated with 300 μM chloroquine (group 1). These cells and control cells (group 2) not treated with chloroquine are incubated at 37° C. for 30 min. The two groups of cells are transferred to DMEM plus 5-DAPP/LIVE. The cells are incubated in the dye-containing medium for 30 min at room temperature and are subsequently washed in HBSS+and viewed by epifluorescence microscopy using a long-pass fluorescein or a rhodamine filter set.

[5] = system: epidermal tissue of the bulb, Alium spp.; test: Staining of plant cell tissue (Example 6); assay type: cell-based; conditions: 10 μM dye, 30 min, room temperature
Experimental: A small section of tissue from the bulb is removed with a razor blade. 0.5 mL of a 10 μM solution of the 5-DAPP/LIVE dye in distilled water is dispensed into a small glass dish. The epidermal tissue is cut into sections and placed in the dye solution. The tissue is stained for 30 min at room temperature in the dark then the tissue preparation is mounted in the presence of the dye between a coverglass and the slide.

[6] = system: peripheral blood lymphocytes; test: Staining of peripheral blood lymphocytes, fluorometer (Example 11); assay type: cell-based, goat; conditions: on the scale of seconds
Experimental: Peripheral blood lymphocytes (PBL) are isolated from fresh heparinized goat blood and resuspended in buffer consisting of 135 mM NaCl, 5 mM KCl, 20 mM HEPES, 1 mM CaCl2, 1 mM MgCl2, pH 7.4 (HBSS+). The cells are resuspended to 10^6 mL (as determined by direct microscopic count using a standard hemocytometer) in a final volume of 3 mL in the above buffer in a quartz cuvette. 5-DAPP/LIVE dye stocks are prepared to final concentrations of 2 mM in DMSO. 3 μL of the octidium dye stock solution is injected into the cuvette to a final concentration of 2 μM. In a fluorometer, the sample is excited at 520 nm and fluorescence emission is monitored at 600 nm over the time required for the fluorescence signal to become stable. Hexidium, butidium and ethidium bromide are injected into separate samples of PBL to determine the relative rates of uptake for these stains. The volume of dye solution added to the cuvette is corrected by a factor relating the absorbance of the dye to the absorbance of a 2 mM octidium solution.

[7] = system: rainbow trout gonad cells (RTG-2); test: Staining followed by fixation (Example 13); assay type: cell-based; conditions: 1 μM, 30 min, room temperature
Experimental: Adherent rainbow trout gonad cells (RTG-2) are grown at 20° C. until about 25% confluent. The cells are labeled by incubation in HBSS- containing 1 μM hexidium at room temperature for 30 min. The cells are subsequently washed free of hexidium with HBSS-, followed by phosphate-buffered saline, pH 7.4 (PBS), and fixed in 2% formaldehyde in PBS for 15 min at room temperature. Cell nuclei and cytoplasmic fluorescence are observed in the fluorescence microscope using fluorescein long-pass or rhodamine filter sets.

[8] = system: living cells; test: Entry into / staining of living cells, general; assay type: cell-based; conditions: general summary
[9] = system: gram-positive bacteria; conditions: mild conditions; application Ser. No. 08/047,683; cited from earlier work
[10] = system: sea urchin sperm; test: Staining of sea urchin sperm (Example 8); assay type: cell-based; conditions: 2 μM dye, 5 min, room temperature
Experimental: Sperm cells are released from sea urchins by injection of KCl and the cells are concentrated by low speed centrifugation and suspended in 1 mL artificial seawater (ASW) at room temperature. Sufficient 10 mM dye stock solution is added to the sperm suspension to obtain a final dye concentration of 2 μM. The sperm are labeled by incubation in the dye solution for 5 min at room temperature. The sperm are washed by centrifugation at 2000 rpm for 1 min and then resuspended in 1 mL ASW before mounting and observation.

## CCCCCC[n+]1c(-c2ccccc2)c2cc(N)ccc2c2ccc(N)cc21 [hexidium]
[1]
  staining of cells loaded to equilibrium / staining pattern: both intense cytoplasmic and nuclear staining
[2]
  extent of loading: optimal
[2]; 488 nm excitation, 600 nm emission
  rate of dye loading: increases with carbon chain length
[3]; 0.2 μM, 2 min, room temperature
  labeling after brief pulse-chase loading: labeling of punctate structures in the cell cytoplasm; also recorded: green
[3]; 2 μM, 2 min, room temperature
  labeling after brief loading: additional organellar staining, which is apparently mitochondrial
[3]; 300 μM chloroquine
  effect of chloroquine preincubation on staining: reduces the amount of cytoplasmic staining
[3]; under both conditions (0.2 and 2 μM)
  staining of nuclei: stained slightly, but only in the nucleolar regions
[4]; group 1, 300 μM chloroquine
  staining distribution, chloroquine-treated cells: stained throughout, but with a greater relative intensity of staining in the nucleus
[4]; group 2, no chloroquine
  staining distribution, control cells: relatively equal staining in the nucleus and cytoplasm
[4]; one half hour, long-pass fluorescein filter (red with rhodamine excitation)
  color of nucleus and cytoplasm: orange
[5]
  cell wall / surface staining: more hazy surface staining occurs with ethidium and butidium than with hexidium or octidium
[6]
  distribution of dye into nucleus of lymphocytes: virtually instantaneous
[7]
  difference between live loaded cells and cells fixed with 2% formaldehyde: essentially no difference
[8]
  membrane permeability: marked enhancement of membrane permeability in all systems
[8]; several types of cells
  entry into / staining of live cells: enters many types of live cells quickly and is bright
[9]
  staining of live gram-positive bacteria: significantly greater
[10]
  effect on motility of the sperm or ability to fertilize a sea urchin egg: no apparent effect
  staining of sperm nuclei: sperm nuclei stain brightly
